Key:
[1] = system: Human umbilical endothelial cells (HUVEC); test: Inhibition of VEGF165-stimulated HUVEC proliferation (3H-thymidine incorporation); type: cell-based; details: HUVEC starved 16 hours, stimulated with 5 ng/ml VEGF165 and 10 μg/ml heparin, 76 hours incubation, then 16 hours 3H-thymidine
Experimental: Human umbilical endothelial cells (HUVEC) were cultivated in IMDM (Gibco BRL), supplemented with 10% foetal calf serum (FBS) (Sigma), 50 μM of β-mercaptoethanol (Fluka), standard antibiotics, 15 μg/ml of endothelial cell growth factor (ECGS, Collaborative Biomedical Products) and 100 μg/ml of heparin (Sigma) on gelatine-coated culture dishes (0.2% gelatine, Sigma) at 37° C., under 5% CO2 in a water-saturated atmosphere.
In order to investigate the inhibitory activity of the compounds according to the invention the cells were starved for 16 hours, i.e. kept in culture medium without growth factors (ECGS+heparin). The cells were detached from the culture dishes using trypsin/EDTA and washed once in serumontaining medium. Then they were seeded out in amounts of 2.5×10^3 cells per well.
The proliferation of the cells was stimulated with 5 ng/ml of VEGF165 (vascular endothelial growth factor; H. Weich, GBF Braunschweig) and 10 μg/ml of heparin. As a control, 6 wells in each dish were not stimulated.
The compounds according to the invention were dissolved in 100% dimethylsulphoxide and added to the cultures in various dilutions in triplicate, the maximum dimethyl sulphoxide concentration being 0.3%.
The cells were incubated for 76 hours at 37° C., then for a further 16 hours ^3H-thymidine (0.1 μCi/well, Amersham) was added in order to determine the DNA synthesis. Then the radioactively labelled cells were immnobilised on filter mats and the radioactivity incorporated was measured in a β-counter. In order to determine the inhibitory activity of the compounds according to the invention the mean value of the non-stimulated cells was subtracted from the mean value of the factor-stimulated cells (in the presence or absence of the compounds according to the invention).
The relative cell proliferation was calculated as a percentage of the control (HUVEC without inhibitor) and the concentration of active substance which inhibits the proliferation of the cells by 50% (IC50) was determined.

Compound	IC50 [1] [µM]	melting point [°C]
CCOC(=O)c1ccc2c(c1)NC(=O)/C2=C(\Nc1ccc(N(CCN(C)C)S(C)(=O)=O)cc1)c1ccccc1 [(h), 3-Z-[1-(4-(N-(2-dimethylamino-ethyl)-N-methylsulphonyl-amino)-anilino)-1-phenyl-methylene]-6-ethoxycarbonyl-2-indolinone]	0.01	
COC(=O)c1ccc2c(c1)NC(=O)/C2=C(\Nc1ccc(N(CC(=O)N(C)C)C(C)=O)cc1)c1ccccc1 [(j), 3-Z-[1-(4-(N-acetyl-N-dimethylaminocarbonylmethyl-amino)-anilino)-1-phenyl-methylene]-6-methoxycarbonyl-2-indolinone]	0.02	
COC(=O)c1ccc2c(c1)NC(=O)/C2=C(\Nc1ccc(N(CCCN(C)C)S(C)(=O)=O)cc1)c1ccccc1 [(o), 3-Z-[1-(4-(N-(3-dimethylamino-propyl)-N-methylsulphonyl-amino)-anilino)-1-phenyl-methylene]-6methoxycarbonyl-2-indolinone]	0.01	
NC(=O)c1ccc2c(c1)NC(=O)/C2=C(\Nc1ccc(CN2CCCCC2)cc1)c1ccccc1 [(b), 3-Z-[1-(4-(piperidin-1-yl-methyl)-anilino)-1-phenyl-methylene]-6-carbamoyl-2-indolinone]	0.35	
COC(=O)c1ccc2c(c1)NC(=O)/C2=C(\Nc1ccc(CN(C)C)cc1)c1ccccc1 [(i), 3-Z-[1-(4-(dimethylaminomethyl)-anilino)-1-phenyl-methylene]-6-methoxycarbonyl-2-indolinone]	0.03	
COC(=O)c1ccc2c(c1)NC(=O)/C2=C(\Nc1ccc(Cc2ccccc2)cc1)c1ccccc1 [Example 3(60), 3-Z-[1-(4-benzyl-anilino)-1-phenyl-methylene]-6-methoxycarbonyl-2-indolinone]		224
COC(=O)c1ccc2c(c1)NC(=O)/C2=C(\Nc1ccc(-c2nccn2C)cc1)c1ccccc1 [(l), 3-Z-[1-(4-(1-methyl-imidazol-2-yl)-anilino)-1-phenyl-methylene]-6-methoxycarbonyl-2-indolinone]	0.1	
CCOC(=O)c1ccc2c(c1)NC(=O)/C2=C(\Nc1ccc(CN2C(C)CCCC2C)cc1)c1ccccc1 (centres unmarked) [(e), 3-Z-[1-(4-((2,6-dimethyl-piperidin-1-yl)-methyl)-anilino)-1-phenyl-methylene]-6-ethoxycarbonyl-2-indolinone]	0.05	
CCOC(=O)c1ccc2c(c1)NC(=O)/C2=C(\Nc1ccc(CN(C)C)cc1)c1ccccc1 [(d), 3-Z-[1-(4-(dimethylaminomethyl)-anilino)-1-phenyl-methylene]-6-ethoxycarbonyl-2-indolinone]	0.02	
COC(=O)c1ccc2c(c1)NC(=O)/C2=C(\Nc1ccc(N(CCN(C)C)S(C)(=O)=O)cc1)c1ccccc1 [(n), 3-Z-[1-(4-(N-(2-dimethylamino-ethyl)-N-methylsulphonyl-amino)-anilino)-1-phenyl-methylene]-6-methoxycarbonyl-2-indolinone]	0.02	
COC(=O)c1ccc2c(c1)NC(=O)/C2=C(\Nc1ccc(CN2CCCCC2)cc1)c1ccccc1 [(c), 3-Z-[1-(4-(piperidin-1-yl-methyl)-anilino)-1-phenyl-methylene]-6-methoxycarbonyl-2-indolinone]	0.01	
COC(=O)c1ccc2c(c1)NC(=O)/C2=C(\Nc1ccc(N(CC(=O)N(C)C)S(C)(=O)=O)cc1)c1ccccc1 [(p), 3-Z-[1-(4-(N-dimethylaminocarbonylmethyl-N-methylsulphonyl-amino)-anilino)-1-phenyl-methylene]-6-methoxycarbonyl-2-indolinone]	0.02	
CCNCc1ccc(N/C(=C2\C(=O)Nc3cc(C(=O)OC)ccc32)c2ccccc2)cc1 [(k), 3-Z-[1-(4-ethylaminomethyl-anilino)-1-phenyl-methylene]-6methoxycarbonyl-2-indolinone]	0.03	
COC(=O)c1ccc2c(c1)NC(=O)/C2=C(\Nc1ccc(N(C)C(=O)CN(C)C)cc1)c1ccccc1 [(m), 3-Z-[1-(4-(N-dimethylaminomethylcarbonyl-N-methyl-amino)-anilino)-1-phenyl-methylene]-6-methoxycarbonyl-2-indolinone]	0.02	
COC(=O)c1ccc2c(c1)NC(=O)/C2=C(\Nc1ccc(N(C)C(=O)CCN(C)C)cc1)c1ccccc1 [(q), 3-Z-[1-(4-(N-((2-dimethylamino-ethyl)-carbonyl)-N-methyl-amino)-anilino)-1-phenyl-methylene]-6-methoxycarbonyl-2-indolinone]	0.02	
CCOC(=O)c1ccc2c(c1)NC(=O)/C2=C(\Nc1ccc(CN2CCCCC2)cc1)c1ccccc1 [(a), 3-Z-[1-(4-(piperidin-1-yl-methyl)-anilino)-1-phenyl-methylene]-6-ethoxycarbonyl-2-indolinone]	0.04	
CCOC(=O)c1ccc2c(c1)NC(=O)/C2=C(\Nc1ccc(N(CCCN(C)C)C(C)=O)cc1)c1ccccc1 [(g), 3-Z-[1-(4-(N-(3-dimethylamino-propyl)-N-acetyl-amino)-anilino)-1-phenyl-methylene]-6-ethoxycarbonyl-2-indolinone]	0.003	
COC(=O)c1ccc2c(c1)NC(=O)/C2=C(\Nc1ccc(N(CCN(C)C)C(C)=O)cc1)c1ccccc1 [(r), 3-Z-[1-(4-(N-(2-dimethylamino-ethyl)-N-acetyl-amino)-anilino)-1-phenyl-methylene]-6-methoxycarbonyl-2-indolinone]	0.01	
CCOC(=O)c1ccc2c(c1)NC(=O)/C2=C(\Nc1ccc(N(CCN(C)C)C(C)=O)cc1)c1ccccc1 [(f), 3-Z-[1-(4-(N-(2-dimethylamino-ethyl)-N-acetyl-amino)-anilino)-1-phenyl-methylene]-6-ethoxycarbonyl-2-indolinone]	0.01	
CNCc1ccc(N/C(=C2\C(=O)Nc3cc(C(=O)OC)ccc32)c2ccccc2)cc1 [(s), 3-Z-[1-(4methylaminomethyl-anilino)-1-phenyl-methylene]-6-methoxycarbonyl-2-indolinone]	0.04	

— patent US6762180B1, “Substituted indolines which inhibit receptor tyrosine kinases” (Boehringer Ingelheim Pharma KG, priority 1999, dated 2004)
